Patent publication US20170114060A1 (priority 2014, published 2017)
Entries after “also recorded” stand apart in the source; their conditions may differ.

Legend:
CRAC/Orai1 channels = CRAC/Orai1 channels (Homo sapiens, UniProt Q96D31); type: cell-based
Ebola VP40 (eVP40) VLPs = type: cell-based
Influenza Virus A = type: cell-based
HIV-1 = type: cell-based
HEK293T cells [1] = test system: HEK293T cells
HEK293T cells [2] = test system: HEK293T cells; remark: listed apart in the source
[3] = test system: Ebola VP40 induced intracellular calcium increase; type: cell-based
[4] = test system: vesicular stomatitis virus (VSV); type: cell-based
retrovirus = settings: cited from earlier work
VP40-APT/PY VLP budding = type: cell-based
[5] = test system: Marburg VP40 (mVP40) VLPs; type: cell-based
[6] = test system: Junin virus (Candid-1 strain); type: cell-based
LASV = type: cell-based, Lassa fever virus
JUNV = type: cell-based, Junin virus
MARV = type: cell-based, Marburg virus
EBOV = type: cell-based, Ebola virus
[7] = test system: eVP40 GFP expressed in HEK cells; type: cell-based

Sequence of CRAC/Orai1 channels (Q96D31 whole entry): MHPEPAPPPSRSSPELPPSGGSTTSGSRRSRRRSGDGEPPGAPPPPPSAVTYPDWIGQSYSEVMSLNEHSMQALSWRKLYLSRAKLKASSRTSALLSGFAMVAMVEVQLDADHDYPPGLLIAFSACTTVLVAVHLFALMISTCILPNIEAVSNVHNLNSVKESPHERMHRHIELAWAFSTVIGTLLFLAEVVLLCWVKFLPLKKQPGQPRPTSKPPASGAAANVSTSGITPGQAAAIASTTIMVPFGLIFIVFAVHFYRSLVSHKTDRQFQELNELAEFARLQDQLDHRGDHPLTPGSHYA

## Cc1c(CC(C(=O)O)c2ccccc2)nn(-c2ccccc2)c1-c1ccccc1 (stereo not drawn) [FC-2122, 3-(4-methyl-1,5-diphenyl-1H-pyrazol-3-yl)-2-phenylpropanoic acid]
CRAC/Orai1 channels
  inhibition of store-operated Ca2+ entry via CRAC/Orai channels: partial dose-dependent inhibition of Tg-induced calcium entry; also recorded: inhibits Orai-mediated calcium entry; also recorded: can block calcium influx into cells via Orai
Ebola VP40 (eVP40) VLPs
  cellular eVP40 expression: not different from mock treated cells
  concentrations at which VP40 expression inhibited: above 10 μM
  inhibition of eVP40 VLP formation: a corresponding inhibition of VLP formation; also recorded: decreased to a comparable extent as by 2-APB; also recorded: inhibits; also recorded: successful inhibition of Ebola VP40 VLP production
Influenza Virus A
  reduction of live Influenza Virus A budding: reduce live Influenza Virus A budding
HIV-1
  inhibition of budding of live HIV-1: did not inhibit budding of live HIV-1
HEK293T cells [1]
  cell viability / cytotoxicity (MTT): without cell toxicity
HEK293T cells [2]
  cytotoxicity: not cytotoxic
MDCK cells
  cytotoxicity: not cytotoxic

## Cc1cc(Cc2cc(C)cc(C(C)(C)C)c2O)c(O)c(Cc2cc(C)cc(C(C)(C)C)c2O)c1 [NSC 62914]
[3]
  block of Ebola VP40 induced intracellular calcium increase: block the Ebola VP40 induced intracellular calcium increase

## Cc1cc(CC(C(=O)O)c2ccc(Cl)cc2)nn1-c1ccc(Cl)cc1 (stereo not drawn) [FC-2399, 2-(4-Chloro-phenyl)-3-[1-(4-chloro-phenyl)-5-methyl-1H-pyrazol-3-yl]-propionic acid]
CRAC/Orai1 channels
  inhibition of store-operated Ca2+ entry via CRAC/Orai channels: reduce Orai-mediated calcium entry
[4]
  inhibition of live VSV budding / titers: significantly reduced budding of live Vesicular Stomatitis Virus in vitro in a dose-dependent manner
Influenza Virus A
  reduction of live Influenza Virus A budding: reduce live Influenza Virus A budding
HIV-1
  inhibition of budding of live HIV-1: reduces budding of live HIV-1

## CC(=O)N[C@@H](CS)C(=O)O [NAC, N-acetyl cysteine]
[3]
  block of Ebola VP40 induced intracellular calcium increase: block the Ebola VP40 induced intracellular calcium increase

## Nc1ccc(C(=O)Nc2cccc(-c3nc(N4CCOCC4)c4oc5ncccc5c4n3)c2)cn1 [YM201636]
Ebola VP40 (eVP40) VLPs
  inhibition of eVP40 VLP formation: dose-dependent reduction of Ebola VP40 VLP production
retrovirus
  retrovirus budding: inhibited retrovirus budding

## c1ccc(C(c2ccccc2)c2noc(C3CCNCC3)n2)cc1 [FC-2121]
CRAC/Orai1 channels
  inhibition of store-operated Ca2+ entry via CRAC/Orai channels: partial dose-dependent inhibition of Tg-induced calcium entry; also recorded: can block calcium influx into cells via Orai; also recorded: reduce Orai-mediated calcium entry
Ebola VP40 (eVP40) VLPs
  inhibition of eVP40 VLP formation: a corresponding inhibition of VLP formation; also recorded: successful inhibition of Ebola VP40 VLP production
Influenza Virus A
  reduction of live Influenza Virus A budding: reduce live Influenza Virus A budding
HEK293T cells [1]
  cell viability / cytotoxicity (MTT): without cell toxicity
HEK293T cells [2]
  cytotoxicity: not cytotoxic
MDCK cells
  cytotoxicity: not cytotoxic

## CC1=C(c2cnc(NC(=O)c3c(F)cccc3F)cn2)CN(c2ncc(C)s2)CC1 [R02959, 2,6-difluoro-N-{5-[4-methyl-1-(5-methyl-thiazol-2-yl)-1,2,5,6-tetrahydro-pyridin-3-yl]-pyrazin-2-yl}-benzamide]
CRAC/Orai1 channels
  inhibition of store-operated Ca2+ entry via CRAC/Orai channels: blocks Ca^2+ entry following Tg stimulation without affecting its release from the ER
  potency as inhibitor of Orai1 relative to 2-APB or Synta66: ~10 fold
CRAC/Orai1 channels; 5 μM
  inhibition of Ca2+ entry via CRAC channels: inhibits Ca^2+ entry via CRAC channels
CRAC/Orai1 channels; concentrations <5 μM
  block of Ca2+ entry: 50-100 fold
Ebola VP40 (eVP40) VLPs
  effect on cellular eVP40 expression/accumulation: without any effect on cellular VP40 expression
  inhibition of eVP40 VLP formation: dose dependent inhibition of eVLP formation
Ebola VP40 (eVP40) VLPs; concentrations <5 μM
  block of eVP40 production: 50-100 fold

## C[C@H](CCC(=O)O)C[C@H](C)C[C@H](C)C(=O)/C=C(\O)[C@H](C)C[C@H](C)C/C=C/[C@@H](C)[C@@H](O)[C@@H](C)[C@@H](O)C[C@@H]1CC[C@@](C)([C@H]2CC[C@@](C)([C@@H](C)O)O2)O1 [ionomycin]
VP40-APT/PY VLP budding
  rescue of VP40-APT/PY VLP budding mediated by the Bro1-V fragment of Alix: did not enhance rescue

## COc1ccc(OC)c(-c2ccc(NC(=O)c3ccncc3F)cc2)c1 [Synta66, N-(2′,5′-dimethoxy[1,1′-biphenyl]-4-yl)-3-fluoro-4-pyridinecarboxamide]
CRAC/Orai1 channels
  inhibition of store-operated Ca2+ entry via CRAC/Orai channels: blocks Ca^2+ entry following Tg stimulation without affecting its release from the ER; also recorded: inhibition of Ca^2+ entry via CRAC channels
Ebola VP40 (eVP40) VLPs
  effect on cellular eVP40 expression/accumulation: neither 2-APB nor Synta66 inhibited cellular accumulation
[5]
  effect on cellular mVP40 accumulation: neither 2-APB nor Synta66 inhibited cellular accumulation
[6]
  cellular expression of JUNV glycoprotein (GP): No effect
  reduction of live Junin virus (Candid-1) foci / budding: dose-dependent reduction in the number of Junin foci; also recorded: reduces the number of JUNV foci in a dose-dependent manner
[4]
  effect on cellular expression of VSV M protein: without affecting expression of VSV M
  inhibition of live VSV budding / titers: dose-dependent inhibition of VSV budding; also recorded: inhibited VSV titers
  reduction in budding of live VSV: dose-dependent reduction in budding of live Vesicular Stomatitis Virus
LASV
  inhibition of live LASV budding and spread: steep dose-dependent inhibition; also recorded: dose-dependent reduction
JUNV
  inhibition of live JUNV budding and spread: steep dose-dependent inhibition; also recorded: dose-dependent reduction
MARV
  inhibition of live MARV budding and spread: steep dose-dependent inhibition; also recorded: dose-dependent reduction
EBOV
  inhibition of live EBOV budding and spread: steep dose-dependent inhibition; also recorded: dose-dependent reduction
[7]
  VP40-induced membrane protrusions / VLP structures at the plasma membrane: not prevelant; also recorded: inhibits the formation of VP40-induced membrane protrusions; also recorded: inhibition of EBOV VP40 protrusions from the plasma membrane; also recorded: reduces Ebola VP40-mediated virus-like particle formation at the plasma membrane
  VP40 expression and membrane localization: no difference in membrane localization of eVP40; also recorded: no apparent effect on VP40 expression or membrane localization; also recorded: does not result in altered expression of Ebola VP40 (green) at the plasma membrane

## NCCOB(c1ccccc1)c1ccccc1 [2-APB, 2-aminoethoxydiphenylborate]
CRAC/Orai1 channels
  concentration that fully inhibited CRAC channels: 50 µM
  inhibition of store-operated Ca2+ entry via CRAC/Orai channels: block store operated Ca^2+ influx; also recorded: blocked; also recorded: blocks Ca^2+ entry following Tg stimulation without affecting its release from the ER; also recorded: inhibition of Ca^2+ entry via CRAC channels
Ebola VP40 (eVP40) VLPs
  effect on cellular eVP40 expression/accumulation: neither 2-APB nor Synta66 inhibited cellular accumulation
  inhibition of eVP40 VLP formation: inhibited eVP40 and mVP40 VLP budding
[5]
  effect on cellular mVP40 accumulation: neither 2-APB nor Synta66 inhibited cellular accumulation
  inhibition of mVP40 VLP budding: inhibited eVP40 and mVP40 VLP budding
[6]
  decrease in the number of foci formed by virions released from cells: 10 fold
  reduction of live Junin virus (Candid-1) foci / budding: a similar dose-dependent decrease in JUNV budding
[4]
  effect on cellular expression of VSV M protein: only a slight effect on cellular M protein expression; also recorded: little to no effect on cellular expression of VSV M protein
  inhibition of live VSV budding / titers: inhibited live VSV viral particle budding; also recorded: dose-dependent inhibition of VSV budding
VP40-APT/PY VLP budding
  sensitivity of Alix Bro1-V rescue of VLP production: 2-APB sensitive
VeroE6 cells
  viability of cells under conditions mimicking infection experiments: without effect on the viability of cells
